IC50 data for 31 molecules are collected here from patent US20250353852A1, “COMPOUNDS AND COMPOSITIONS THAT INHIBIT PIKFYVE” (Kineta, Inc., priority 2021, published 2025).

The target in the assay is full-length human PIKFYVE (Homo sapiens (Human), UniProt Q9Y2I7, L932S/Q1183K/Q995L/S1033A/S696N/T998S). Briefly: PIKfyve biochemical assay (ADP-Glo Kinase assay, Carna Biosciences). To be noted: class symbols. An excerpt: PIKfyve Biochemical Assay. The biochemical […] inhibition assays were run by Carna Biosciences according to proprietary methodology based on the Promega […] Kinase assay. […] NP_055855.2] was expressed as N-terminal GST-fusion protein (265 kDa) using baculovirus expression system. GST-PIKFYVE was purified by using glutathione sepharose chromatography and used in an ADP-GloTM Kinase assay (Promega). Reactions were set up by adding the test compound solution, substrate solution, ATP solution and kinase solution, each at 4× final concentrations. Reactions were prepared with assay buffer (50 mM MOPS, 1 mM DTT, pH7.2), mixed, and incubated in black 384 well polystyrene plates for 1 hour at room temperature. ADP-Glo^TM reagent was then added for 40 minutes, followed by kinase detection reagent for an additional 40 minutes. The kinase activity was evaluated by detecting relative light units on a luminescence plate reader. […] IC50 values were calculated from concentration vs % inhibition curves by fitting to a four-parameter logistic curve. […] The biochemical […] inhibition assays were run by Carna Biosciences according to proprietary methodology based on the Promega ADP-GloTM Kinase assay. […] GST-PIKFYVE was purified by using glutathione sepharose chromatography and used in an ADP-GIoTM Kinase assay (Promega). Reactions were set up by adding the test compound solution, substrate solution, ATP solution and kinase solution, each at 4× final concentrations. Reactions were prepared with assay buffer (50 mM MOPS, 1 mM DTT, pH7.2), mixed, and incubated in black 384 well polystyrene plates for 1 hour at room temperature. ADP-GIoTM reagent was then added for 40 minutes, followed by kinase detection reagent for an additional 40 minutes. The kinase activity was evaluated by detecting relative light units on a luminescence plate reader. […] IC50 values were calculated from concentration vs % inhibition curves by fitting to a four-parameter logistic curve. […] The same compounds were also tested in both FAB1 and PIKFYVE TDP-43 yeast models.
Chain of full-length human PIKFYVE (Q9Y2I7 whole entry S696N/L932S/Q995L/T998S/S1033A/Q1183K, the tested form may be a part): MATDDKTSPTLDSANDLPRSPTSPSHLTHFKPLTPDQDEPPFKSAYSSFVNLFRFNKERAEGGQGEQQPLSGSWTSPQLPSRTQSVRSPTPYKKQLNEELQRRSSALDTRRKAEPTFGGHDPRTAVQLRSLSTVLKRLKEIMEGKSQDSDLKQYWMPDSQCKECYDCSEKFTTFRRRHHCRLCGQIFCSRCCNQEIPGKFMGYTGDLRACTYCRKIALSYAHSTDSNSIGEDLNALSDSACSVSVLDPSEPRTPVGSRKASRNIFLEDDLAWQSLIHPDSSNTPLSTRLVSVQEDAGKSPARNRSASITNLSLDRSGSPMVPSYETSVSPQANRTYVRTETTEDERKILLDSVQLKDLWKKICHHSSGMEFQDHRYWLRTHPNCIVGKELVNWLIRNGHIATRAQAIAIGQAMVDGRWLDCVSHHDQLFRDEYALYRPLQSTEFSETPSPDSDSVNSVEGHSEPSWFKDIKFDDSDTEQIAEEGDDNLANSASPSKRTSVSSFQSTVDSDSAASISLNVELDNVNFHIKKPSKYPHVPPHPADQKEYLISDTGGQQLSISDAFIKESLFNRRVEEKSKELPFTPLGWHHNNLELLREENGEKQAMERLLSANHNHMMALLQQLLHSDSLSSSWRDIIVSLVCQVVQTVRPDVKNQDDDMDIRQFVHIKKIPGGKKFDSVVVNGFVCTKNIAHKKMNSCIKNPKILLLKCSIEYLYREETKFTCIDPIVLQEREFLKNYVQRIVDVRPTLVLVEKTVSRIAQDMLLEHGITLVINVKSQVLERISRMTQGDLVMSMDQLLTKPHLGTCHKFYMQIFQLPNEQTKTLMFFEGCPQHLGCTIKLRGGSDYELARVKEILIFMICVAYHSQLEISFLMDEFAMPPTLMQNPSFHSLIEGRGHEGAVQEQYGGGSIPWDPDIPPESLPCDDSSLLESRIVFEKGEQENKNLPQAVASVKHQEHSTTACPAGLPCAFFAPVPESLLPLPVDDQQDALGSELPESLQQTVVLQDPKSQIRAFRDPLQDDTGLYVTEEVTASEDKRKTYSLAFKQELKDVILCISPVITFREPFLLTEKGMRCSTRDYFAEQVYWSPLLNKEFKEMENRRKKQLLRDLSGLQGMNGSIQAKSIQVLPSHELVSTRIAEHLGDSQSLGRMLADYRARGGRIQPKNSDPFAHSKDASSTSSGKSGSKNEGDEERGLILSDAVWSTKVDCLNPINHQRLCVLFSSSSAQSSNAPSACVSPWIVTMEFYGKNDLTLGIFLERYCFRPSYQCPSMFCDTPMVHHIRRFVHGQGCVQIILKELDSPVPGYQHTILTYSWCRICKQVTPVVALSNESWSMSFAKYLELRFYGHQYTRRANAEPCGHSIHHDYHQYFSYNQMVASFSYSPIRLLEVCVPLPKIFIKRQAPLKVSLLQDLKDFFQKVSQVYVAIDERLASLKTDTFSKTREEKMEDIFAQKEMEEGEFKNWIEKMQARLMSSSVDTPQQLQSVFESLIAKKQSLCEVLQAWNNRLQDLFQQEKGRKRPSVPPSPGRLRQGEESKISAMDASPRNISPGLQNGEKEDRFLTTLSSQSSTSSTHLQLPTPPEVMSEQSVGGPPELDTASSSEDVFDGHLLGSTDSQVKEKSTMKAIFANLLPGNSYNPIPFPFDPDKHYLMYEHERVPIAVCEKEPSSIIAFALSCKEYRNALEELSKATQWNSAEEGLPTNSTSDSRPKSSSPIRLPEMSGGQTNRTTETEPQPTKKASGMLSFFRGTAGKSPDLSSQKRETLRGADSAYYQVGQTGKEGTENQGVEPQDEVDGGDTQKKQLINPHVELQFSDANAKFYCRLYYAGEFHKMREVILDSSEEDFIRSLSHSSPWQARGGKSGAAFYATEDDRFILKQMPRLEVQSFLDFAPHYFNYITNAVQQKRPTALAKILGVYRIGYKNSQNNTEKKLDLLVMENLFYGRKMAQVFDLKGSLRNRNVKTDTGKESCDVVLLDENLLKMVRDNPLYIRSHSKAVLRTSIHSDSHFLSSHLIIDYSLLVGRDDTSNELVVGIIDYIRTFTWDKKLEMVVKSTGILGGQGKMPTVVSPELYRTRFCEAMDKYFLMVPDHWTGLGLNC
Background: ADP-Glo first removes unused ATP, then detects ADP through luciferase.
The term IC50 denotes the point on the concentration scale where inhibition reaches its midpoint. Read a high IC50 as weaker potency in that assay. In turn, `c1cncc(-n2ccc(-c3cc(N4CCOCC4)n4nc(-c5ccncc5)cc4n3)n2)c1` [Compound 13, 4-(5-(1-(pyridin-3-yl)-1H-pyrazol-3-yl)-2-(pyridin-4-yl)pyrazolo[1,5-a]pyrimidin-7-yl)morpholine] showed an IC50 of 0.01 to 0.1 µM. `O=C1CCC(c2ccccc2)CN1c1cc(N2CCOCC2)n2nc(-c3ccncc3)cc2n1` (stereo not shown) [Compound 26, 1-(7-morpholino-2-(pyridin-4-yl)pyrazolo[1,5-a]pyrimidin-5-yl)-5-phenylpiperidin-2-one] came in with an IC50 of 1 to 10 µM.

As to `c1ccc(-c2nnc(-c3cc(N4CCOCC4)n4nc(-c5ccncc5)cc4n3)o2)cc1` [Compound 130, 4-(5-(5-phenyl-1,3,4-oxadiazol-2-yl)-2-(pyridin-4-yl)pyrazolo[1,5-a]pyrimidin-7-yl)morpholine], the IC50 was in the range of 1 to 10 µM. Regarding `Cc1cccc(C(=O)COc2cc(N3CCOCC3)n3nc(-c4ccncc4)cc3n2)c1` [Compound 125, 2-((7-morpholino-2-(pyridin-4-yl)pyrazolo[1,5-a]pyrimidin-5-yl)oxy)-1-(m-tolyl)ethan-1-one], the half-inhibitory concentration (IC50) lay within 1 to 10 µM.

The molecule `FC1(F)CNCC(c2ccn(-c3cc(N4CCOCC4)n4nc(-c5ccncc5)cc4n3)n2)C1` (stereo not shown) [Compound 74, 4-(5-(3-(5,5-difluoropiperidin-3-yl)-1H-pyrazol-1-yl)-2-(pyridin-4-yl)pyrazolo[1,5-a]pyrimidin-7-yl)morpholine] returned an IC50 of 1 to 10 µM. `CC1(CCc2ccn(-c3cc(N4CCOCC4)n4nc(-c5ccncc5)cc4n3)n2)CC1` [Compound 84, 4-(5-(3-(2-(1-methylcyclopropyl)ethyl)-1H-pyrazol-1-yl)-2-(pyridin-4-yl)pyrazolo[1,5-a]pyrimidin-7-yl)morpholine]: the IC50 lay within 1 to 10 µM. With `c1cc(-c2cc3nc(-n4ccc(-c5cncnc5)n4)cc(N4CCOCC4)n3n2)ccn1` [Compound 72, 4-(2-(pyridin-4-yl)-5-(3-(pyrimidin-5-yl)-1H-pyrazol-1-yl)pyrazolo[1,5-a]pyrimidin-7-yl)morpholine], the IC50 lay in the range of 0.1 to 1 µM.

`c1cc(-c2cc3nc(-n4ncc5c4CCCC5)cc(N4CCOCC4)n3n2)ccn1` [Compound 86, 4-(2-(pyridin-4-yl)-5-(4,5,6,7-tetrahydro-1H-indazol-1-yl)pyrazolo[1,5-a]pyrimidin-7-yl)morpholine] displayed an IC50 of 1 to 10 µM. For `Oc1cc(C2CCCCC2)nn1-c1cc(N2CCOCC2)n2nc(-c3ccncc3)cc2n1` [Compound 49, 3-cyclohexyl-1-(7-morpholino-2-(pyridin-4-yl)pyrazolo[1,5-a]pyrimidin-5-yl)-1H-pyrazol-5-ol], the IC50 was 0.1 to 1 µM. For the molecule `CN1CCN(c2cc(N3CCOCC3)n3nc(-c4ccncc4)cc3n2)C(Cc2ccccc2)C1=O` (stereo not shown) [Compound 28, 3-benzyl-1-methyl-4-(7-morpholino-2-(pyridin-4-yl)pyrazolo[1,5-a]pyrimidin-5-yl)piperazin-2-one], the IC50 was in the range of 1 to 10 µM. In turn, `CN1CCC(c2cc(O)n(-c3cc(N4CCOCC4)n4nc(-c5ccncc5)cc4n3)n2)CC1` [Compound 56, 3-(1-methylpiperidin-4-yl)-1-(7-morpholino-2-(pyridin-4-yl)pyrazolo[1,5-a]pyrimidin-5-yl)-1H-pyrazol-5-ol] came in with a concentration for half-maximal inhibition (IC50) of 0.1 to 1 µM. Then `c1ccc(Oc2cccnc2-c2cc(N3CCOCC3)n3nc(-c4ccncc4)cc3n2)cc1` [Compound 41, 4-(5-(3-phenoxypyridin-2-yl)-2-(pyridin-4-yl)pyrazolo[1,5-a]pyrimidin-7-yl)morpholine], with 0.1 to 1 µM. In the case of `Oc1cc(-c2ccccc2F)nn1-c1cc(N2CCOCC2)n2nc(-c3ccncc3)cc2n1` [Compound 53, 3-(2-fluorophenyl)-1-(7-morpholino-2-(pyridin-4-yl)pyrazolo[1,5-a]pyrimidin-5-yl)-1H-pyrazol-5-ol], the IC50 lay within 0.01 to 0.1 µM. Then `Fc1ccc(Oc2ncccc2-c2cc(N3CCOCC3)n3nc(-c4ccncc4)cc3n2)cc1` [Compound 138, 4-(5-(2-(4-fluorophenoxy)pyridin-3-yl)-2-(pyridin-4-yl)pyrazolo[1,5-a]pyrimidin-7-yl)morpholine], with 0.1 to 1 µM. For the molecule `c1cn(-c2cc(N3CCOCC3)n3nc(C4CCCO4)cc3n2)nc1C1CCOCC1` (stereo not shown) [Compound 95, 4-(5-(3-(tetrahydro-2H-pyran-4-yl)-1H-pyrazol-1-yl)-2-(tetrahydrofuran-2-yl)pyrazolo[1,5-a]pyrimidin-7-yl)morpholine], the IC50 was more than 10 µM. With `c1ccc(Oc2ncccc2-c2cc(N3CCOCC3)n3nc(-c4ccncc4)cc3n2)cc1` [Compound 42, 4-(5-(2-phenoxypyridin-3-yl)-2-(pyridin-4-yl)pyrazolo[1,5-a]pyrimidin-7-yl)morpholine] the figure was 0.1 to 1 µM; with `c1ccc(-c2ccn(-c3cc(N4CCOCC4)n4nc(C5CCCO5)cc4n3)n2)cc1` (stereo not shown) [Compound 90, 4-(5-(3-phenyl-1H-pyrazol-1-yl)-2-(tetrahydrofuran-2-yl)pyrazolo[1,5-a]pyrimidin-7-yl)morpholine], 0.01 to 0.1 µM. With “4-(5-(3-(3-fluorophenyl)-1H-pyrazol-1-yl)-2-(pyridin-4-yl)pyrazolo[1,5-a]pyrimidin-7-yl)morpholine [Compound 64]” the figure was 0.01 to 0.1 µM. The molecule `Oc1cc(-c2cncnc2)nn1-c1cc(N2CCOCC2)n2nc(-c3ccncc3)cc2n1` [Compound 44, 1-(7-morpholino-2-(pyridin-4-yl)pyrazolo[1,5-a]pyrimidin-5-yl)-3-(pyrimidin-5-yl)-1H-pyrazol-5-ol] displayed an IC50 of 0.1 to 1 µM. `c1ccc(-n2nccc2-c2cc(N3CCOCC3)n3nc(-c4ccncc4)cc3n2)cc1` [Compound 146, 4-(5-(1-phenyl-1H-pyrazol-5-yl)-2-(pyridin-4-yl)pyrazolo[1,5-a]pyrimidin-7-yl)morpholine]: the IC50 was 0.1 to 1 µM. On to `Oc1c2c(nn1-c1cc(N3CCOCC3)n3nc(-c4ccncc4)cc3n1)CCCC2` [Compound 55, 2-(7-morpholino-2-(pyridin-4-yl)pyrazolo[1,5-a]pyrimidin-5-yl)-4,5,6,7-tetrahydro-2H-indazol-3-ol], for which the IC50 was 0.1 to 1 µM. `c1cc(-c2cc3nc(-n4cnc(C5CCCNC5)c4)cc(N4CCOCC4)n3n2)ccn1` (stereo not shown) [Compound 16, 4-(5-(4-(piperidin-3-yl)-1H-imidazol-1-yl)-2-(pyridin-4-yl)pyrazolo[1,5-a]pyrimidin-7-yl)morpholine] showed an IC50 of 1 to 10 µM. Molecule `c1ccc(Cc2ncccc2-c2cc(N3CCOCC3)n3nc(-c4ccncc4)cc3n2)cc1` [Compound 39, 4-(5-(2-benzylpyridin-3-yl)-2-(pyridin-4-yl)pyrazolo[1,5-a]pyrimidin-7-yl)morpholine] came in with an IC50 of 1 to 10 µM.

In the case of `c1ccc(-n2ccc(-c3cc(N4CCOCC4)n4nc(-c5ccncc5)cc4n3)n2)cc1` [Compound 14, 4-(5-(1-phenyl-1H-pyrazol-3-yl)-2-(pyridin-4-yl)pyrazolo[1,5-a]pyrimidin-7-yl)morpholine], the IC50 was in the range of 0.01 to 0.1 µM.

`c1ccc(-n2ccc(-c3cc(N4CCOCC4)n4nc(C5CCCO5)cc4n3)n2)cc1` (stereo not shown) [Compound 96, 4-(5-(1-phenyl-1H-pyrazol-3-yl)-2-(tetrahydrofuran-2-yl)pyrazolo[1,5-a]pyrimidin-7-yl)morpholine] showed an IC50 of 0.1 to 1 µM. `c1cc(-c2cc3nc(-n4ccc(C5CCCNC5)n4)cc(N4CCOCC4)n3n2)ccn1` (single isomer, unassigned) [Compound 76, 4-(5-(3-(piperidin-3-yl)-1H-pyrazol-1-yl)-2-(pyridin-4-yl)pyrazolo[1,5-a]pyrimidin-7-yl)morpholine] registered an IC50 of 0.1 to 1 µM. Consider `COCCc1ccn(-c2cc(N3CCOCC3)n3nc(-c4ccncc4)cc3n2)n1` [Compound 81, 4-(5-(3-(2-methoxyethyl)-1H-pyrazol-1-yl)-2-(pyridin-4-yl)pyrazolo[1,5-a]pyrimidin-7-yl)morpholine], for which the IC50 fell in the range of 0.1 to 1 µM. `c1cc(-c2cc3nc(-n4ccc(C5CCCNC5)n4)cc(N4CCOCC4)n3n2)ccn1` (stereo not shown) [Compound 67, 4-(5-(3-(piperidin-3-yl)-1H-pyrazol-1-yl)-2-(pyridin-4-yl)pyrazolo[1,5-a]pyrimidin-7-yl)morpholine]: the IC50 lay in the range of 0.1 to 1 µM.

For `CC(C)(C)OC(=O)NC(=N)c1cc(N2CCOCC2)n2nc(-c3ccncc3)cc2n1` [Compound 115, tert-butyl imino(7-morpholino-2-(pyridin-4-yl)pyrazolo[1,5-a]pyrimidin-5-yl)methylcarbamate], the IC50 was in the range of 0.1 to 1 µM. For the molecule `CC(C)(C)OC(=O)N1CCN(c2cc(N3CCOCC3)n3nc(-c4ccncc4)cc3n2)C(Cc2ccccc2)C1` (stereo not shown) [Compound 116, tert-butyl 3-benzyl-4-(7-morpholino-2-(pyridin-4-yl)pyrazolo[1,5-a]pyrimidin-5-yl)piperazine-1-carboxylate], the IC50 is 1 to 10 µM. Then `Oc1cc(-c2cc(N3CCOCC3)n3nc(-c4ccncc4)cc3n2)nn1-c1cccc(F)c1` [Compound 59, 1-(3-fluorophenyl)-3-(7-morpholino-2-(pyridin-4-yl)pyrazolo[1,5-a]pyrimidin-5-yl)-1H-pyrazol-5-ol], with 0.01 to 0.1 µM.
